Laboratory results: patent US11203571B2, “Sulfonamides as modulators of sodium channels” (VERTEX PHARMACEUTICALS INCORPORATED, priority 2013, dated 2021)

Assays:
[1] = Human liver microsome assay; format: in vitro ADME; details: 1 uM substrate, 0.5 mg/mL liver microsome, 2 mM NADPH, 37° C., referenced against time zero control
Protocol: Human Liver Microsome Assay Protocol
Liver microsomal stability data were generated as follows. Substrates were incubated at 37° C. and shaken for 30 minutes in a phosphate buffered solution with human liver microsomes and the cofactor NADPH. A time zero control was similarly prepared, however with NADPH excluded. The final incubation concentrations were 1 uM substrate (0.2% DMSO), 0.5 mg/mL liver microsome, 2 mM NADPH, and 0.1 M phosphate. Reactions were quenched and proteins precipitated with the addition of 2 volume equivalents of ice cold acetonitrile containing an internal standard. Following a centrifugation step, aliquots from the quenched incubations were further diluted with 4 volume equivalents of a 50% aqueous methanol solution and then subjected to LC/MS/MS analysis for quantitation of parent substrate. Microsome stability values were calculated as the percent of substrate remaining after 30 minutes referenced against the time zero control.

[2] = biological target: human Nav1.8 (Homo sapiens (Human), UniProt Q9Y5Y9); assay: E-VIPR optical membrane potential assay with electrical stimulation; format: cell-based; details: HEK cells expressing human Nav1.8
human Nav1.8, sequence (Q9Y5Y9 whole entry): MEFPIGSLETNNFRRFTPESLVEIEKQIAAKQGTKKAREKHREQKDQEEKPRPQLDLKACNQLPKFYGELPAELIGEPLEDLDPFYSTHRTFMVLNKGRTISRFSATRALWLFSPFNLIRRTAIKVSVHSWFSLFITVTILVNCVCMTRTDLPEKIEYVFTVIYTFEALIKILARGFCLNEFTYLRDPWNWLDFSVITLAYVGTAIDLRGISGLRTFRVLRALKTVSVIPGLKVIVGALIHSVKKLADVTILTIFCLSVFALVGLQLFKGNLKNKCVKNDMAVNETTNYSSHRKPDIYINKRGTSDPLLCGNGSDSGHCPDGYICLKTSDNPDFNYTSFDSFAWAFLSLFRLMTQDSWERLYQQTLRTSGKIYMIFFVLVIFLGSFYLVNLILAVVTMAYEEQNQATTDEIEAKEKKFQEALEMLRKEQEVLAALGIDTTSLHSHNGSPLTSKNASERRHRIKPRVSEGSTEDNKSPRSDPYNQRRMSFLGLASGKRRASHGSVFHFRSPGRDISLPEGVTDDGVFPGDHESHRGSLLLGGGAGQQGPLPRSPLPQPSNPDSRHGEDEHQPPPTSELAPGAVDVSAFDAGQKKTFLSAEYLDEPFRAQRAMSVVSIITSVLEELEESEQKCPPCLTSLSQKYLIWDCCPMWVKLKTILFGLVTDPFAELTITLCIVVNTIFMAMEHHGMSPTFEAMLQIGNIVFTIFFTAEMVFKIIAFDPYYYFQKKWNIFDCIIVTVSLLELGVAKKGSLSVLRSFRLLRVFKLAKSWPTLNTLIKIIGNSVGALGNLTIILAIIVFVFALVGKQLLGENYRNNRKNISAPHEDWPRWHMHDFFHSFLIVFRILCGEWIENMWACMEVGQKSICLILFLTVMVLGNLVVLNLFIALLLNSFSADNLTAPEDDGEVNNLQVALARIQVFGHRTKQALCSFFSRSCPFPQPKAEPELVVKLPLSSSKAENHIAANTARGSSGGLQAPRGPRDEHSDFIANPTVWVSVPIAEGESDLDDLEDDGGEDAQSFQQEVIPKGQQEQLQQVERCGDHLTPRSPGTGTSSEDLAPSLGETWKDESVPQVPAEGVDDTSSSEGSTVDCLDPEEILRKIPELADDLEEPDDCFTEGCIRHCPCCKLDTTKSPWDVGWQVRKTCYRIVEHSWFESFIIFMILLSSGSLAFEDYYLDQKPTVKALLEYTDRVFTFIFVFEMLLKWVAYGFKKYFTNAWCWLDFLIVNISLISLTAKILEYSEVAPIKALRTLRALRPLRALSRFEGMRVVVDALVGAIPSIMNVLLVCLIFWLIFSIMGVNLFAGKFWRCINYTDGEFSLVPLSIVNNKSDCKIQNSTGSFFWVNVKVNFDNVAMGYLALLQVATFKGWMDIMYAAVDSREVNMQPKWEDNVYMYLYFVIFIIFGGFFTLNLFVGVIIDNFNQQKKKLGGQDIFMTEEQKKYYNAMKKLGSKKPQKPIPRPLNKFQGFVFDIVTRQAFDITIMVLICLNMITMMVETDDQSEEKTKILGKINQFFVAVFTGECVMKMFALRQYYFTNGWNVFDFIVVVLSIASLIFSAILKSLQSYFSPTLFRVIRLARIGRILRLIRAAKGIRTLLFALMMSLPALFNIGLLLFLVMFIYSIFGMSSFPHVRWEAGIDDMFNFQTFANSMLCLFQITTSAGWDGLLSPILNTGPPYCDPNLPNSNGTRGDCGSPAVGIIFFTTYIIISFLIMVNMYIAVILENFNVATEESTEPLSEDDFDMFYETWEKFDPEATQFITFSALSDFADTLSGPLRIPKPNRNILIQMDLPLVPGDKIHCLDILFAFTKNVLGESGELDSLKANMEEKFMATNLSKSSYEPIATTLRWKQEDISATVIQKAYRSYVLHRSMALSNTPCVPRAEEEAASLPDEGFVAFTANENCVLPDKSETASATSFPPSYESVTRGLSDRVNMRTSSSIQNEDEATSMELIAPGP
Source text: E-VIPR Optical Membrane Potential Assay Method with Electrical Stimulation
Sodium channels are voltage-dependent proteins that can be activated by inducing membrane voltage changes by applying electric fields. The electrical stimulation instrument and methods of use are described in Ion Channel Assay Methods PCT/US01/21652, herein incorporated by reference and are referred to as E-VIPR. The instrument comprises a microtiter plate handler, an optical system for exciting the coumarin dye while simultaneously recording the coumarin and oxonol emissions, a waveform generator, a current- or voltage-controlled amplifier, and a device for inserting electrodes in well. Under integrated computer control, this instrument passes user-programmed electrical stimulus protocols to cells within the wells of the microtiter plate.
24 hours before the assay on E-VIPR, HEK cells expressing human Nav1.8 were seeded in 384-well poly-lysine coated plates at 15,000-20,000 cells per well. HEK cells were grown in media (exact composition is specific to each cell type and NaV subtype) supplemented with 10% FBS (Fetal Bovine Serum, qualified; GibcoBRL #16140-071) and 1% Pen-Strep (Penicillin-Streptomycin; GibcoBRL #15140-122). Cells were grown in vented cap flasks, in 90% humidity and 5% CO2.
• 100 mg/mL Pluronic F-127 (Sigma #P2443), in dry DMSO • Compound Plates: 384-well round bottom plate, e.g. Corning 384-well Polypropylene Round Bottom #3656 • Cell Plates: 384-well tissue culture treated plate, e.g. Greiner #781091-1B • 10 mM DiSBAC6(3) (Aurora #00-100-010) in dry DMSO • 10 mM CC2-DMPE (Aurora #00-100-008) in dry DMSO • 200 mM ABSC1 in H20
Bath1 buffer: Glucose 10 mM (1.8 g/L), Magnesium Chloride (Anhydrous), 1 mM (0.095 g/L), Calcium Chloride, 2 mM (0.222 g/L), HEPES 10 mM (2.38 g/L), Potassium Chloride, 4.5 mM (0.335 g/L), Sodium Chloride 160 mM (9.35 g/L).
Hexyl Dye Solution: Bath1 Buffer+0.5% β-cyclodextrin (make this prior to use, Sigma #C4767), 8 μM CC2-DMPE+2.5 μM DiSBAC6(3). To make the solution Added volume of 10% Pluronic F127 stock equal to volumes of CC2-DMPE+DiSBAC6(3). The order of preparation was first mix Pluronic and CC2-DMPE, then added DiSBAC6(3) while vortexing, then added Bath1+β-Cyclodextrin.
1) Pre-spotted compounds (in neat DMSO) into compound plates. Vehicle control (neat DMSO), the positive control (20 mM DMSO stock tetracaine, 125 μM final in assay) and test compounds were added to each well at 160× desired final concentration in neat DMSO. Final compound plate volume was 80 μL (80-fold intermediate dilution from 1 μL DMSO spot; 160-fold final dilution after transfer to cell plate). Final DMSO concentration for all wells in assay was 0.625%.
2) Prepared Hexyl Dye Solution.
3) Prepared cell plates. On the day of the assay, medium was aspirated and cells were washed three times with 100 μL of Bath1 Solution, maintaining 25 μL residual volume in each well.
4) Dispensed 25 μL per well of Hexyl Dye Solution into cell plates. Incubated for 20-35 minutes at room temp or ambient conditions.
5) Dispensed 80 μL per well of Bath1 into compound plates. Acid Yellow-17 (1 mM) was added and Potassium Chloride was altered from 4.5 to 20 mM depending on the NaV subtype and assay sensitivity.
6) Washed cell plates three times with 100 μL per well of Bath1, leaving 25 μL of residual volume. Then transferred 25 uL per well from Compound Plates to Cell Plates. Incubated for 20-35 minutes at room temp/ambient condition.
7) Read Plate on E-VIPR. Used the current-controlled amplifier to deliver stimulation wave pulses for 10 seconds and a scan rate of 200 Hz. A pre-stimulus recording was performed for 0.5 seconds to obtain the un-stimulated intensities baseline. The stimulatory waveform was followed by 0.5 seconds of post-stimulation recording to examine the relaxation to the resting state.
Data was analyzed and reported as normalized ratios of emission intensities measured in the 460 nm and 580 nm channels. […]

HLM: percent unchanged after 30 min [1] [%]	IC50 [2] [µM]	Compound
72	0.021	CCOc1ccc(Oc2cc(C(F)(F)F)ccc2C(=O)Nc2cccc(S(N)(=O)=O)c2)cc1 [Compound 45, 2-(4-ethoxyphenoxy)-N-(3-sulfamoylphenyl)-4-(trifluoromethyl)benzamide]
67	0.014	CCCOc1ccccc1Oc1cc(C(F)(F)F)ccc1C(=O)Nc1cccc(S(N)(=O)=O)c1 [Compound 46, 2-(2-propoxyphenoxy)-N-(3-sulfamoylphenyl)-4-(trifluoromethyl)benzamide]
100	0.014	Cc1ccccc1Oc1cc(C(F)(F)F)ccc1C(=O)Nc1cccc(S(N)(=O)=O)c1 [Compound 47, N-(3-sulfamoylphenyl)-2-(o-tolyloxy)-4-(trifluoromethyl)benzamide]
68	0.01	COc1ccc(Oc2cc(C(F)(F)F)ccc2C(=O)Nc2cccc(S(N)(=O)=O)c2)c(Cl)c1 [Compound 48, 2-(2-chloro-4-methoxyphenoxy)-N-(3-sulfamoylphenyl)-4-(trifluoromethyl)benzamide]
57	0.012	COc1ccc(Oc2cc(C(F)(F)F)ccc2C(=O)Nc2cccc(S(N)(=O)=O)c2)c(C)c1 [Compound 49, 2-(4-methoxy-2-methylphenoxy)-N-(3-sulfamoylphenyl)-4-(trifluoromethyl)benzamide]
72	0.008	COc1ccc(Oc2cc(C(F)(F)F)ccc2C(=O)Nc2cccc(S(N)(=O)=O)c2)c(OC)c1 [Compound 50, 2-(2,4-dimethoxyphenoxy)-N-(3-sulfamoylphenyl)-4-(trifluoromethyl)benzamide]
89	0.014	NS(=O)(=O)c1cccc(NC(=O)c2ccc(C(F)(F)F)cc2Oc2ccc(OC(F)(F)F)cc2)c1 [Compound 51, N-(3-sulfamoylphenyl)-2-(4-(trifluoromethoxy)phenoxy)-4-(trifluoromethyl)benzamide]
81	0.011	COc1c(F)cccc1Oc1cc(C(F)(F)F)ccc1C(=O)Nc1cccc(S(N)(=O)=O)c1 [Compound 52, 2-(3-fluoro-2-methoxyphenoxy)-N-(3-sulfamoylphenyl)-4-(trifluoromethyl)benzamide]
71	0.026	CC(C)Oc1ccc(Oc2cc(C(F)(F)F)ccc2C(=O)Nc2cccc(S(N)(=O)=O)c2)cc1 [Compound 53, 2-(4-isopropoxyphenoxy)-N-(3-sulfamoylphenyl)-4-(trifluoromethyl)benzamide]
96	0.005	COc1cc(F)ccc1Oc1cc(OC(F)(F)F)ccc1C(=O)Nc1cccc(S(N)(=O)=O)c1 [Compound 54, 2-(4-fluoro-2-methoxyphenoxy)-N-(3-sulfamoylphenyl)-4-(trifluoromethoxy)benzamide]
95	0.009	NS(=O)(=O)c1cccc(NC(=O)c2ccc(OC(F)(F)F)cc2Oc2ccc(F)cc2)c1 [Compound 55, 2-(4-fluorophenoxy)-N-(3-sulfamoylphenyl)-4-(trifluoromethoxy)benzamide]
102	0.004	NS(=O)(=O)c1cccc(NC(=O)c2ccc(OC(F)(F)F)cc2Oc2ccc(F)cc2Cl)c1 [Compound 56, 2-(2-chloro-4-fluorophenoxy)-N-(3-sulfamoylphenyl)-4-(trifluoromethoxy)benzamide]
78	0.027	COc1ccccc1Oc1cccc(C(F)(F)F)c1C(=O)Nc1cccc(S(N)(=O)=O)c1 [Compound 57, 2-(2-methoxyphenoxy)-N-(3-sulfamoylphenyl)-6-(trifluoromethyl)benzamide]
107	0.006	Cc1cc(Cl)ccc1Oc1cccc(C(F)(F)F)c1C(=O)Nc1cccc(S(N)(=O)=O)c1 [Compound 58, 2-(4-chloro-2-methylphenoxy)-N-(3-sulfamoylphenyl)-6-(trifluoromethyl)benzamide]
66	0.014	Cc1c(F)cccc1Oc1cccc(C(F)(F)F)c1C(=O)Nc1cccc(S(N)(=O)=O)c1 [Compound 59, 2-(3-fluoro-2-methylphenoxy)-N-(3-sulfamoylphenyl)-6-(trifluoromethyl)benzamide]
92	0.009	NS(=O)(=O)c1cccc(NC(=O)c2c(Oc3ccc(OC(F)(F)F)cc3)cccc2C(F)(F)F)c1 [Compound 60, N-(3-sulfamoylphenyl)-2-(4-(trifluoromethoxy)phenoxy)-6-(trifluoromethyl)benzamide]
68	0.028	COc1ccc(Oc2cccc(C(F)(F)F)c2C(=O)Nc2cccc(S(N)(=O)=O)c2)cc1F [Compound 61, 2-(3-fluoro-4-methoxyphenoxy)-N-(3-sulfamoylphenyl)-6-(trifluoromethyl)benzamide]
81	0.016	COc1ccc(Oc2cc(OC(F)(F)F)ccc2C(=O)Nc2cccc(S(N)(=O)=O)c2)c(Cl)c1 [Compound 62, 2-(2-chloro-4-methoxyphenoxy)-N-(3-sulfamoylphenyl)-4-(trifluoromethoxy)benzamide]
92	0.027	NS(=O)(=O)c1cccc(NC(=O)c2ccc(OC(F)(F)F)cc2Oc2ccccc2Cl)c1 [Compound 63, 2-(2-chlorophenoxy)-N-(3-sulfamoylphenyl)-4-(trifluoromethoxy)benzamide]
96	0.022	NS(=O)(=O)c1cccc(NC(=O)c2ccc(OC(F)(F)F)cc2Oc2ccccc2OC(F)F)c1 [Compound 64, 2-(2-(difluoromethoxy)phenoxy)-N-(3-sulfamoylphenyl)-4-(trifluoromethoxy)benzamide]
101	0.022	COc1cc(Cl)ccc1Oc1cc(OC(F)(F)F)ccc1C(=O)Nc1cccc(S(N)(=O)=O)c1 [Compound 65, 2-(4-chloro-2-methoxyphenoxy)-N-(3-sulfamoylphenyl)-4-(trifluoromethoxy)benzamide]
89	0.007	COc1c(Cl)cccc1Oc1cc(OC(F)(F)F)ccc1C(=O)Nc1cccc(S(N)(=O)=O)c1 [Compound 66, 2-(3-chloro-2-methoxyphenoxy)-N-(3-sulfamoylphenyl)-4-(trifluoromethoxy)benzamide]
91	0.026	COc1ccc(Oc2cc(C(F)(F)F)ccc2C(=O)Nc2cccc(S(N)(=O)=O)c2)cc1Cl [Compound 67, 2-(3-chloro-4-methoxyphenoxy)-N-(3-sulfamoylphenyl)-4-(trifluoromethyl)benzamide]
